In US10189845B2, “4,6-substituted-pyrazolo[1,5-a]pyrazines as janus kinase inhibitors” (ARRAY BIOPHARMA INC., priority 2014, dated 2019) one finds IC50 data, which are given here for 22 compounds.

Molecules are shown by their SMILES. Like-named read-outs stand apart in the source and are kept apart here.

Format in all cases: biochemical
One assay deals with Human Tyk2 kinase domain (Homo sapiens (Human), UniProt P29597). As to the kind of experiment: Tyk2 Inhibition Assay (Example A, Omnia kinase fluorescence peptide substrate assay). The conditions noted are these: TYK2 Enzyme IC50 1 mM ATP, averaged IC50 ranges. An excerpt: (§1) The assays described in Examples A, B, C and D for the determination of Tyk2, JAK1, JAK2 and JAK3 kinase activity, respectively, utilized the Omnia® Kinase fluorescence peptide substrate-based technology (Invitrogen). The specific components of the assay mixture are described in Examples A, B, C and D. In these assays, Mg^2+ is chelated upon phosphorylation of the Omnia peptide by the kinase to form a bridge between the chelation-enhanced fluorophore Sox and the phosphate, resulting in an increase in fluorescence emission at 485 nm when excited at […]. The reactions were therefore read at excitation 360 nm and emission was measured at 485 nm every 50 seconds for 45 minutes using a PerkinElmer EnVision Multilabel Plate Reader.
Human Tyk2 kinase domain, sequence (P29597 886-1187): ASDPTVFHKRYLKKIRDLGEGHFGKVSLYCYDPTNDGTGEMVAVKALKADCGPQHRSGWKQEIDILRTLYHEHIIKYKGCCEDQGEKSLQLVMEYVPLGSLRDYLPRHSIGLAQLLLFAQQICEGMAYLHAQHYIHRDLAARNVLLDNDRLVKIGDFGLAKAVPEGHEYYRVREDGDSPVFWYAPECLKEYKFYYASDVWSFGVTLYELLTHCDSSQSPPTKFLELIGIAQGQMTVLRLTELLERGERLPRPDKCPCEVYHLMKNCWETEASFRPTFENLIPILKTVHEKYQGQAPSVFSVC
(§2) The final buffer conditions for Tyk2, JAK1, JAK2, and JAK3 assays were as follows: 25 mM HEPES, pH 7.4, 10 mM MgCl2, 0.01% Triton X-100 and 1 mM DTT.
(§3) Two-μL aliquots of these were transferred to a fresh plate for a ten-fold intermediate dilution with assay buffer. Five-μL aliquots of the diluted compounds were then transferred to 20-μL of assay mixtures described in Examples A, B, C and D for a final concentration of DMSO of 2%. […] For each plate, percent of control (POC) values were calculated for each well according to the following equation: […]
(§4) IC50's were estimated from the POC's using a standard 4-parameter logistic model:
(§5) The IC50 is defined as the concentration of inhibitor at which the POC equals 50 for the fitted curve.
Compounds of Formula I were screened for their ability to inhibit Tyk2 using the general enzyme inhibition assay method, in which the assay mixture contained 1 mM ATP, 8 μM Omnia Y12 peptide (Catalog # IVGN KPZ3121C; Invitrogen Corporation, Carlsbad, Calif.) and 1 nM Tyk2 in a total volume of 25 μL. Human Tyk2 kinase domain, comprising amino acids 886 to 1187 with 10 additional histidine residues (histidine tag) on the carboxy terminus, was expressed and purified from bacculovirus in-house at Array BioPharma Inc. (Boulder, Colo.). The histidine tag was cleaved after purification using standard conditions.

Another assay concerns the target JAK2 (Homo sapiens (Human), UniProt O60674). As to the kind of experiment: JAK2 Inhibition Assay (Example C, Omnia kinase fluorescence peptide substrate assay). As to conditions: JAK2 Enzyme IC50 1 mM ATP, averaged IC50 ranges.
Text: as §1, §2, §3, §4, §5
Compounds of Formula I were screened for their ability to inhibit JAK2 using the general enzyme inhibition assay method, in which the assay mixture contained 1 mM ATP, 10 μM Omnia® Y7 peptide (Catalog # IVGN KNZ3071C, Invitrogen Corporation, Carlsbad, Calif.) and 4 nM JAK2 in a total volume of 25 μL. JAK2 was purchased from Invitrogen Corporation, Carlsbad, Calif. (catalog # IVGN PV4288).

The target in another assay is JAK1 (Homo sapiens (Human), UniProt P23458). Nature of the assay: JAK1 Inhibition Assay (Example B, Omnia kinase fluorescence peptide substrate assay).
JAK1, sequence (P23458 whole entry): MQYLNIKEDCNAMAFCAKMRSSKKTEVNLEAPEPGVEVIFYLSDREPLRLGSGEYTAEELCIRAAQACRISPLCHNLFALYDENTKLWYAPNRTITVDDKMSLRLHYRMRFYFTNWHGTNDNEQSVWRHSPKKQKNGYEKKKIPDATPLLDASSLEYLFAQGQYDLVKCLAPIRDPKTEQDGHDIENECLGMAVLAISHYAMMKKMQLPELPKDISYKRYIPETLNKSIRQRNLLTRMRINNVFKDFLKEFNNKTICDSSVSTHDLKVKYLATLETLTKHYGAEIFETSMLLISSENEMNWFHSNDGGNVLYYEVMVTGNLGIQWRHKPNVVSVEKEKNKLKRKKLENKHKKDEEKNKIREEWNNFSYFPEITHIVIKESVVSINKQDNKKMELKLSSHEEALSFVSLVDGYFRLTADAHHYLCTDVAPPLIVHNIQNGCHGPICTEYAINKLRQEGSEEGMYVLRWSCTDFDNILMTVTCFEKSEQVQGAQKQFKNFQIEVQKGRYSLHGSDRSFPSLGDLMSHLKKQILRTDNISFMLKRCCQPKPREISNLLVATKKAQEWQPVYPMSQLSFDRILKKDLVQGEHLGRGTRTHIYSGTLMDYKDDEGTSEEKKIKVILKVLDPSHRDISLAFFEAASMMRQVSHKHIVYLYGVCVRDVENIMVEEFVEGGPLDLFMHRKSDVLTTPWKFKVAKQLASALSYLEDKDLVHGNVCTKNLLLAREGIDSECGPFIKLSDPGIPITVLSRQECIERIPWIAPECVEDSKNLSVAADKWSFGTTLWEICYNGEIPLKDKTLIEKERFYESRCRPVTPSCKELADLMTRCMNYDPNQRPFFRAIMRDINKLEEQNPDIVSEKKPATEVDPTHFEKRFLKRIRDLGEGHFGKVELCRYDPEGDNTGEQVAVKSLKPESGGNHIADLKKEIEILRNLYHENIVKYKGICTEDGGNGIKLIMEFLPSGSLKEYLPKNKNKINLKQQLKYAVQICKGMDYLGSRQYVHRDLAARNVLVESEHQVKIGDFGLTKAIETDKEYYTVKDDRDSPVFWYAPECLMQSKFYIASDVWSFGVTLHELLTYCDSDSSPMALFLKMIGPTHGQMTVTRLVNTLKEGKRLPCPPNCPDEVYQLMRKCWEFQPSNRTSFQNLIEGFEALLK
Text: as §1, §2, §3, §4, §5
Compounds of Formula I were screened for their ability to inhibit JAK1 using the general enzyme inhibition assay method, in which the assay mixture contained 1 mM ATP, 8 μM Omnia® Y12 peptide (Catalog # IVGN KPZ3121C; Invitrogen Corporation, Carlsbad, Calif.) and 12.5 nM JAK1 in a total volume of 25 μL. JAK1 was purchased from Invitrogen Corporation, Carlsbad, Calif. (catalog # IVGN PV4775).

Another assay deals with JAK3 (Homo sapiens (Human), UniProt P52333). As to the kind of experiment: JAK3 Inhibition Assay (Example D, Omnia kinase fluorescence peptide substrate assay).
JAK3, sequence (P52333 whole entry): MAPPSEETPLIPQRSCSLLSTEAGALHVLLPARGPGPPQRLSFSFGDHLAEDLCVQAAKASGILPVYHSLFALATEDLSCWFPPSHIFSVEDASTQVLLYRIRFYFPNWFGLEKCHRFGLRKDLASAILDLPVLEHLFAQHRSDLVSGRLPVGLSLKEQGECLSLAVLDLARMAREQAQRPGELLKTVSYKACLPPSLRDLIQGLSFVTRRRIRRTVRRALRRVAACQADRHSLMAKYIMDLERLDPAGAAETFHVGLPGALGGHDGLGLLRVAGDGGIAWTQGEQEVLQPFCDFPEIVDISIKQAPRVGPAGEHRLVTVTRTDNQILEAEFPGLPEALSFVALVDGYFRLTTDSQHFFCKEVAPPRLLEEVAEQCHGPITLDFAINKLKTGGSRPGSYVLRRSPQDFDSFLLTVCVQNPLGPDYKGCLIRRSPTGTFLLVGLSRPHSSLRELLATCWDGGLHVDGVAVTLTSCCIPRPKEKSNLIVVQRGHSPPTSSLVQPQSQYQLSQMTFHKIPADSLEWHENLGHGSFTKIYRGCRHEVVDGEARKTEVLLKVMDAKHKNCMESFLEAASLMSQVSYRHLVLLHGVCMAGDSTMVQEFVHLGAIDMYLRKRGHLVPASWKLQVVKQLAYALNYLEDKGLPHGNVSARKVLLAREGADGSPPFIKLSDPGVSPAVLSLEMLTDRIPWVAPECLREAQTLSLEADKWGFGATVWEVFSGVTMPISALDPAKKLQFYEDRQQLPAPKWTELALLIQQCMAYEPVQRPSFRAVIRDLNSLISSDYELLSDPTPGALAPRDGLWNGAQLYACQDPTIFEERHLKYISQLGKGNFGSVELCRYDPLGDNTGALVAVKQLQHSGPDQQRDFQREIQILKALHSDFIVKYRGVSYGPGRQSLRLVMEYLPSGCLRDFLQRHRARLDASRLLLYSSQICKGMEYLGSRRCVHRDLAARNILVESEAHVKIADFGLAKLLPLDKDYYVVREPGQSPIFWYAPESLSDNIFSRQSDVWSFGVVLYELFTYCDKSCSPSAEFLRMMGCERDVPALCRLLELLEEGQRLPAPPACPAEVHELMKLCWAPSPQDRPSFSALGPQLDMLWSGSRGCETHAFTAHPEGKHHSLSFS
Text: as §1, §2, §3, §4, §5
Compounds of Formula I were screened for their ability to inhibit JAK3 using the general enzyme inhibition assay method, in which the assay mixture contained 1 mM ATP, 10 μM Omnia® Y7 peptide (Catalog # IVGN KNZ3071C, Invitrogen Corporation, Carlsbad, Calif.) and 2 nM JAK3 in a total volume of 25 μL. JAK3 was purchased from Invitrogen Corporation, Carlsbad, Calif. (catalog # IVGN PV4080).

[1] abbreviates: JAK1 Enzyme IC50 1 mM ATP, 1 mM ATP, averaged IC50 ranges.

JAK2, sequence (O60674 whole entry): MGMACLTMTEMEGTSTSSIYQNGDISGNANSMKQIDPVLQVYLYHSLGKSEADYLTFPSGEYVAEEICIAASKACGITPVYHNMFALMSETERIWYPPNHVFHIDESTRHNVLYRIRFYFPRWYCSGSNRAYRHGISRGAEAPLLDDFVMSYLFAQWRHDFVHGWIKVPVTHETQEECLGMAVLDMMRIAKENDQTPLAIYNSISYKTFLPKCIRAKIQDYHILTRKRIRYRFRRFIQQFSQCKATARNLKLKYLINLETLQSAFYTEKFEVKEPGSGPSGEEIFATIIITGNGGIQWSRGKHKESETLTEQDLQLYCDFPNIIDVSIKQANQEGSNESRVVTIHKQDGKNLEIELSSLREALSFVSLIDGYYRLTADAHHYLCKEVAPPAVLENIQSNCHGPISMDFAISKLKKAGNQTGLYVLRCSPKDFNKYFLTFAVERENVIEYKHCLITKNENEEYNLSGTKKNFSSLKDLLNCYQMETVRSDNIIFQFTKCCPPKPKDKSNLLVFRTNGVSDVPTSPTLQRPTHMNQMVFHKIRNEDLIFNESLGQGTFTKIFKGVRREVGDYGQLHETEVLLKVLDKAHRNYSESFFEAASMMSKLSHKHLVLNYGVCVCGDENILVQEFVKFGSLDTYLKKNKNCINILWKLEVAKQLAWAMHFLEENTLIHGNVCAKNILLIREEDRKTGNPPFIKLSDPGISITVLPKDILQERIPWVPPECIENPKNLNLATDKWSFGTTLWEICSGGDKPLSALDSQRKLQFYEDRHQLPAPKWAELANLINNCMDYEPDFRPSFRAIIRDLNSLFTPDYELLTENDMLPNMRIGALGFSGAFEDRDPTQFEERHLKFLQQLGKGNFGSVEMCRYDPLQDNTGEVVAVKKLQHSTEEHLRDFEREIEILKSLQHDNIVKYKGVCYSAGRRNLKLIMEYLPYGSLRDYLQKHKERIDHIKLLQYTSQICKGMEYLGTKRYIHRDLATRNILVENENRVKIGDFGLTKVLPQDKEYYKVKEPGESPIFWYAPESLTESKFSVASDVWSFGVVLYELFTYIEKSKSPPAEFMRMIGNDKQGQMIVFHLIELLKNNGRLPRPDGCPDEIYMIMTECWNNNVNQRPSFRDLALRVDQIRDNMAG

Regarding `CCC(CC)n1cc(-c2nc(-c3cnn([C@H](C)[C@@H](C)O)c3)cn3nccc23)cn1` (single isomer, unassigned) [Example 156], the IC50 was 0.01 to 0.1 µM against Human Tyk2 kinase domain, 0.01 to 0.1 µM against JAK2, 0.1 to 1 µM at JAK1 (setting [1]) and 1 to 10 µM on JAK3.

With `CCC(CC)n1cc(-c2nc(-c3cnn([C@@H](C)[C@@H](C)O)c3)cn3nccc23)cn1` (single isomer, unassigned) [Example 157], the IC50 at Human Tyk2 kinase domain fell in the range of 0.01 to 0.1 µM; against JAK2 it was 0.01 to 0.1 µM; against JAK1 (setting [1]), 0.1 to 1 µM; against JAK3 it was 1 to 10 µM.

In the case of `CCC(CC)n1cc(-c2nc(-c3cnn([C@H](C)[C@H](C)O)c3)cn3nccc23)cn1` (single isomer, unassigned) [Example 158], the IC50 against Human Tyk2 kinase domain is 0.01 to 0.1 µM; on JAK2, 0.01 to 0.1 µM; against JAK1 (setting [1]) it was 0.01 to 0.1 µM; against JAK3 it was 1 to 10 µM.

Turning to `CC[C@H](C1CCC1)n1cc(-c2nc(-c3cnn(C[C@@H](O)CO)c3)cn3nccc23)cn1` (single isomer, unassigned) [Example 196], the IC50 against Human Tyk2 kinase domain was 0.1 to 1 µM; against JAK2, 0.1 to 1 µM; against JAK1 (setting [1]) it was 1 to 10 µM; against JAK3 it was 1 to 10 µM.

For the compound `CC[C@@H](C1CCC1)n1cc(-c2nc(-c3cnn(C[C@@H](O)CO)c3)cn3nccc23)cn1` (single isomer, unassigned) [Example 197], the 50% inhibitory concentration (IC50) at Human Tyk2 kinase domain lay in the range of 0.01 to 0.1 µM; at JAK2 it was 0.01 to 0.1 µM; against JAK1 (setting [1]) it was 0.1 to 1 µM; against JAK3, 1 to 10 µM.

Turning to `CC[C@@H](n1cc(-c2nc(-c3cnn(C[C@@H](O)CO)c3)cn3nccc23)cn1)C(C)(F)F` (single isomer, unassigned) [Example 199], the half-maximal inhibitory concentration (IC50) was in the range of 0.1 to 1 µM at Human Tyk2 kinase domain, 0.1 to 1 µM on JAK2, 1 to 10 µM at JAK1 (setting [1]) and 1 to 10 µM on JAK3.

On to `CCC(CC)n1cc(-c2nc(-c3cnn(C[C@@H](O)CCO)c3)cn3nccc23)cn1` (single isomer, unassigned) [Example 200], for which the IC50 at Human Tyk2 kinase domain is 0.01 to 0.1 µM; against JAK2, 0.01 to 0.1 µM; against JAK1 it was 0.1 to 1 µM; against JAK3, 1 to 10 µM.

`CCC(CC)n1cc(-c2nc(-c3cnn(C[C@@](C)(O)CO)c3)cn3nccc23)cn1` (single isomer, unassigned) [Example 202]: the half-inhibitory concentration (IC50) was in the range of 0.01 to 0.1 µM against Human Tyk2 kinase domain, 0.01 to 0.1 µM on JAK2, 0.1 to 1 µM against JAK1 and 1 to 10 µM against JAK3.

Regarding `CCC(CC)n1cc(-c2nc(-c3cnn(C[C@](C)(O)CO)c3)cn3nccc23)cn1` (single isomer, unassigned) [Example 203], the IC50 at Human Tyk2 kinase domain lay in the range of 0.01 to 0.1 µM; on JAK2 it was 0.01 to 0.1 µM; against JAK1 it was 0.1 to 1 µM; against JAK3 it was 1 to 10 µM.

In the case of `CC[C@@H]1CCC[C@@H]1n1cc(-c2nc(-c3cnn(C[C@@H](O)CO)c3)cn3nccc23)cn1` (single isomer, unassigned) [Example 207], the IC50 on Human Tyk2 kinase domain was 0.01 to 0.1 µM; on JAK2 it was less than 0.01 µM; against JAK1 (setting [1]), 0.1 to 1 µM; against JAK3 it was 0.1 to 1 µM.

For `CC[C@H]1CCC[C@H]1n1cc(-c2nc(-c3cnn(C[C@@H](O)CO)c3)cn3nccc23)cn1` (single isomer, unassigned) [Example 208], the IC50 against Human Tyk2 kinase domain is 0.1 to 1 µM; on JAK2, 0.01 to 0.1 µM; against JAK1 (setting [1]), 1 to 10 µM; at JAK3, 1 to 10 µM.

In the case of `CCC(CC(F)(F)F)n1cc(-c2nc(-c3cnn(C(CO)CO)c3)cn3nccc23)cn1` (single isomer, unassigned) [Example 212], the half-inhibitory concentration (IC50) is 0.1 to 1 µM on Human Tyk2 kinase domain, 0.1 to 1 µM at JAK2, 1 to 10 µM on JAK1 and 1 to 10 µM on JAK3.

For the compound `CCC(CC)n1cc(-c2nc(-c3cnn([C@H]4CCC[C@H]4O)c3)cn3nccc23)cn1` (single isomer, unassigned) [compound 190], the IC50 was 0.1 to 1 µM at Human Tyk2 kinase domain, 0.1 to 1 µM on JAK2, 1 to 10 µM on JAK1 (setting [1]) and 1 to 10 µM against JAK3.

`CCC(CC)n1cc(-c2nc(-c3cnn(C[C@H](O)CCO)c3)cn3nccc23)cn1` (single isomer, unassigned) [compound 201]: the IC50 against Human Tyk2 kinase domain was in the range of 0.01 to 0.1 µM; on JAK2, 0.01 to 0.1 µM; against JAK1, 1 to 10 µM; at JAK3 it was 1 to 10 µM.

On to `CCOC(C)n1cc(-c2nc(-c3cnn(C)c3)cn3nccc23)cn1` (stereo not shown) [Example 1, 4-(1-(1-ethoxyethyl)-1H-pyrazol-4-yl)-6-(1-methyl-1H-pyrazol-4-yl)pyrazolo[1,5-a]pyrazine], for which the concentration for half-maximal inhibition (IC50) against Human Tyk2 kinase domain, against JAK2, on JAK1 and against JAK3 was 1 to 10 µM each time.

On to `Cn1cc(-c2cn3nccc3c(-c3cnn(C4CCCCCC4)c3)n2)cn1` [Example 2, 4-(1-cycloheptyl-1H-pyrazol-4-yl)-6-(1-methyl-1H-pyrazol-4-yl)pyrazolo[1,5-a]pyrazine], for which the half-maximal inhibitory concentration (IC50) was 0.1 to 1 µM against Human Tyk2 kinase domain, 0.1 to 1 µM against JAK2, 1 to 10 µM against JAK1 and 1 to 10 µM against JAK3.

`CCC(CC)n1cc(-c2nc(-c3cnn(CCN4CCOCC4)c3)cn3nccc23)cn1` [Example 3, 4-(2-(4-(4-(1-(pentan-3-yl)-1H-pyrazol-4-yl)pyrazolo[1,5-a]pyrazin-6-yl)-1H-pyrazol-1-yl)ethyl)morpholine]: the 50% inhibitory concentration (IC50) is 0.01 to 0.1 µM on Human Tyk2 kinase domain, 0.01 to 0.1 µM against JAK2, 1 to 10 µM against JAK1 and 1 to 10 µM against JAK3.

For `CCC(CC)n1cc(-c2nc(-c3cnn(CC4CCOCC4)c3)cn3nccc23)cn1` [Example 4, 4-(1-(pentan-3-yl)-1H-pyrazol-4-yl)-6-(1-((tetrahydro-2H-pyran-4-yl)methyl)-1H-pyrazol-4-yl)pyrazolo[1,5-a]pyrazine], the IC50 against Human Tyk2 kinase domain lay in the range of 0.01 to 0.1 µM; against JAK2 it was 0.01 to 0.1 µM; against JAK1, 0.1 to 1 µM; at JAK3 it was 1 to 10 µM.

For `CCC(CC)n1cc(-c2nc(-c3cnn(CC(=O)N(C)C)c3)cn3nccc23)cn1` [Example 5, N,N-dimethyl-2-(4-(4-(1-(pentan-3-yl)-1H-pyrazol-4-yl)pyrazolo[1,5-a]pyrazin-6-yl)-1H-pyrazol-1-yl)acetamide], the IC50 on Human Tyk2 kinase domain is 0.01 to 0.1 µM; at JAK2, 0.1 to 1 µM; against JAK1, 0.1 to 1 µM; against JAK3, 1 to 10 µM.

As to `CCC(CC)n1cc(-c2nc(-c3cnn(CC(=O)N4CCOCC4)c3)cn3nccc23)cn1` [Example 6, 1-morpholino-2-(4-(4-(1-(pentan-3-yl)-1H-pyrazol-4-yl)pyrazolo[1,5-a]pyrazin-6-yl)-1H-pyrazol-1-yl)ethanone], the half-maximal inhibitory concentration (IC50) against Human Tyk2 kinase domain was 0.01 to 0.1 µM; at JAK2, 0.01 to 0.1 µM; against JAK1, 0.01 to 0.1 µM; at JAK3, 1 to 10 µM.

In the case of `CCC(CC)n1cc(-c2nc(-c3cnn(CCCS(C)(=O)=O)c3)cn3nccc23)cn1` [Example 7, 6-(1-(3-(methylsulfonyl)propyl)-1H-pyrazol-4-yl)-4-(l-(pentan-3-yl)-1H-pyrazol-4-yl)pyrazolo[1,5-a]pyrazine], the IC50 against Human Tyk2 kinase domain fell in the range of 0.01 to 0.1 µM; on JAK2, 0.01 to 0.1 µM; against JAK1, 1 to 10 µM; on JAK3, 1 to 10 µM.

For `CCC(CC)n1cc(-c2nc(-c3cnn(CCN(C)S(C)(=O)=O)c3)cn3nccc23)cn1` [Example 9, N-methyl-N-(2-(4-(4-(1-(pentan-3-yl)-1H-pyrazol-4-yl)pyrazolo[1,5-a]pyrazin-6-yl)-1H-pyrazol-1-yl)ethyl)methanesulfonamide], the IC50 is 0.01 to 0.1 µM on Human Tyk2 kinase domain, 0.01 to 0.1 µM against JAK2, 0.1 to 1 µM on JAK1 (setting [1]) and 1 to 10 µM on JAK3.

As usually defined, the IC50 is the concentration that inhibits the measured activity by half. The low end stands for inhibition by little substance, the high end for a need for much substance.
